Like-named read-outs stand apart in the source and are kept apart here.
Tests used:
M. tuberculosis = conditions: against M. tuberculosis; cited from earlier work
M. tuberculosis H37Rv = assay type: in vivo
in vivo = assay: in vivo; set-up: species or system Balb/c mice; conditions: male, Balb/c, mouse, po, 30 mg/kg
Method: Samples were analyzed by LC-MS.
(A) Mouse survival curves from maximum tolerated dose study. All mice (n = 5) received one dose daily 6 times weekly for 4 weeks. 80% aqueous propylene glycol, (vehicle control).
Half-life and sequential exposure time of drug in serum is critical for its in vivo efficacious activity.

Row | SMILES | MIC (M. tuberculosis) | further results
1 | C[C@]1(COc2ccc(N3CCC(Oc4ccc(OC(F)(F)F)cc4)CC3)cc2)Cn2cc([N+](=O)[O-])nc2O1 [Delamanid] | 0.006 to 0.024 µg/mL | 
2 | NNC(=O)c1ccncc1 [INH, isoniazid] | 0.3 µM | reduction of M. tuberculosis bacterial load in the spleen (M. tuberculosis H37Rv; relative to counts at initiation of chemotherapy (4.26 log10), Balb/c mice, oral once daily 6 times per week for 4 weeks, ND-09759 30 mg/kg, INH 25 mg/kg, RMP 20 mg/kg): 0.38 log10; reduction of M. tuberculosis bacterial load in the lung (M. tuberculosis H37Rv; relative to counts at initiation of chemotherapy (5.18 log10), Balb/c mice, oral once daily 6 times per week for 4 weeks, ND-09759 30 mg/kg, INH 25 mg/kg, RMP 20 mg/kg): 0.27 log10
3 | CC(=O)NC[C@H]1CN(c2ccc(N3CCOCC3)c(F)c2)C(=O)O1 [Linezolid] | 0.25 to 1 µg/mL | 
4 | Cc1ccn2c(C(=O)NCc3ccc(Oc4ccc(Cl)cc4)cc3)c(C)nc2c1 [ND-09759, N-(4-(4-chlorophenoxy)benzyl)-2,7-dimethylimidazo[1,2-a]pyridine-3-carboxamide] |  | AUC(0-t) (in vivo): 22200 ng·h/mL; Cmax (in vivo): 2900 ng/mL; half-life (in vivo): 20.1 h
5 | O=[N+]([O-])c1cn2c(n1)OC[C@@H](OCc1ccc(OC(F)(F)F)cc1)C2 [PA-824] | 0.015 to 0.25 µg/mL | 
6 | CO[C@H]1/C=C/O[C@@]2(C)Oc3c(C)c(O)c4c(O)c(c(/C=N/N5CCN(C)CC5)c(O)c4c3C2=O)NC(=O)/C(C)=C\C=C\[C@H](C)[C@H](O)[C@@H](C)[C@@H](O)[C@@H](C)[C@H](OC(C)=O)[C@@H]1C [RMP, rifampicin] | 0.003 µM | reduction of M. tuberculosis bacterial load in the lung (M. tuberculosis H37Rv; in vivo): 0.23 log10; reduction of M. tuberculosis bacterial load in the spleen (M. tuberculosis H37Rv; in vivo): 0.35 log10
7 | CC(C)=CCC/C(C)=C/CNCCNC1C2CC3CC(C2)CC1C3 (centres unmarked) [SQ109] | 0.7 to 1.56 µM | 
8 | COc1nc2ccc(Br)cc2cc1[C@@H](c1ccccc1)[C@@](O)(CCN(C)C)c1cccc2ccccc12 [TMC 207] | 0.030−0.120 µg/ml | 

Source: PMC3909116 (PLoS ONE, 2014)
